This note sets out measurements from patent US8530648B2, “Diaza-spiro[5.5]undecanes” (Novartis AG, priority 2009, dated 2013).

In assay [1] the target is T1, hOx1R (Homo sapiens (Human), UniProt O43613). Briefly: Calcium accumulation in cells (FLIPR), hOx1R. The format is cell-based. The conditions noted are these: for Ki: inhibition of orexin A induced calcium accumulation, Cheng and Prusoff correction. The procedure, abridged: (§1)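 Cells expressing human orexin 1 or 2 receptor, serum-deprived overnight, loaded with Fluo-4-AM (2 μM) plus 0.1 mM probenecid, pH 7.4 HEPES buffer with 1% BSA.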
T1 sequence (O43613 whole entry): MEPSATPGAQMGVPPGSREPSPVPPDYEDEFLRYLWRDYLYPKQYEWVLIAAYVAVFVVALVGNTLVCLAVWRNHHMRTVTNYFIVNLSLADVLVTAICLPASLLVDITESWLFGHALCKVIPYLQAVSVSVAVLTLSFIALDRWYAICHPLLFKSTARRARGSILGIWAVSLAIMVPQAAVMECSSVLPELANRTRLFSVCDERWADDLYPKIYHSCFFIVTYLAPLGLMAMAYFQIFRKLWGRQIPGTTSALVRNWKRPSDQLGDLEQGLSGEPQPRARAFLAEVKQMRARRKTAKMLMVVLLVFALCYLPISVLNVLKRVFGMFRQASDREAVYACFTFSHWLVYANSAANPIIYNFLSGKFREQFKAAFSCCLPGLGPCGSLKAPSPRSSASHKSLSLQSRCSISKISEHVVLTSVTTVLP

Assay [2] deals with T2, hOx2R (Homo sapiens (Human), UniProt O43614). In words: Radioligand binding assay, [3H]-SB649868, hOx2R. To be noted: radioligand [3H]-SB649868, competition. The method, then:
(§2) For crude cell membrane preparations, cells (CHO, Chinese hamster ovary or HEK, human embryonic kidney) expressing human orexin 1 or human orexin 2 receptors, were washed with HEPES (10 mM, pH 7.5), scraped off the culture plates with the same buffer, and centrifuged at 4° C. for 5 min at 2500×g. The cell pellet was either stored at −80° C. or used directly. Before the experiments, cell membranes were re-suspended in binding assay buffer (10 mM HEPES, 0.5% (w/v) bovine serum albumin, pH 7.5) by homogenisation with a Polytron homogeniser at 50 Hz for 20 s. Cell membranes were also used as made available by commercial providers.
(§3) Bound radioactivity was measured, and data were analysed with the program XLFIT or Graphpad Prism. Protein concentration was determined according to the Bradford/BioRad Protein Assay Kit.
(§4) In competition experiments, cell homogenates (150 μl) were incubated in assay buffer (10 mM HEPES, pH 7.5, 0.5% (w/v) bovine serum albumin, 5 mM MgCl2, 1 mM CaCl2, and tween 0.05%) for 1 h at room temperature with about 1 nM of the radioligand [^3H]-SB649868, 66 Ci/mmole, 50 μl), and with various concentrations of compounds of the invention (50 μl) in triplicates; non-specific binding was determined in the presence of almorexant (10 μM).

The target in assay [3] is T1, hOx1R. In words: Radioligand binding assay, [3H]-SB649868, hOx1R. To be noted: radioligand [3H]-SB649868, competition. As for the experimental part:
as §2, §3, §4

The target in assay [4] is T2, hOx2R. Briefly: Calcium accumulation in cells (FLIPR), hOx2R. It counts as cell-based. To be noted: inhibition of orexin A induced calcium accumulation, Cheng and Prusoff correction. The method in brief:
as §1

T2 sequence (O43614 whole entry): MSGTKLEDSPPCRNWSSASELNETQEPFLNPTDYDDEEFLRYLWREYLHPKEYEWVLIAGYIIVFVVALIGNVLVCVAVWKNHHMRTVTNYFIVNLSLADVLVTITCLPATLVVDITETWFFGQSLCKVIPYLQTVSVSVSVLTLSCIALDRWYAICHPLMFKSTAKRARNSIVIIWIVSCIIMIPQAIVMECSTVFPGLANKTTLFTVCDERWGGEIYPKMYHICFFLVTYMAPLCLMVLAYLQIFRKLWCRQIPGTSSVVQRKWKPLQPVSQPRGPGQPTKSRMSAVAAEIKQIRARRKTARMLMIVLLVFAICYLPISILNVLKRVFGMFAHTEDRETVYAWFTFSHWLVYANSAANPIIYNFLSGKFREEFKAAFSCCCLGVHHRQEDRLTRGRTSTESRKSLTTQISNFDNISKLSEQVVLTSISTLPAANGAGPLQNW

With `O=C1N(Cc2cccc3c2OCCO3)CCCC12CCN(c1nccc3occc13)CC2` [Example 82, 2-((2,3-dihydrobenzo[b][1,4]dioxin-5-yl)methyl)-9-(furo[3,2-c]pyridin-4-yl)-2,9-diazaspiro[5.5]undecan-1-one], the inhibition (in general, the relative decrease from the control value, in per cent) at 10 µM in assay [1] (measured at a concentration of 10 μM of compound) was 33%. Further, the Kd (usually the constant that tells how readily two partners part at equilibrium) in assay [2] was determined as 624 nM; in assay [3], 5090 nM. Further, the Ki (commonly the dissociation constant of the complex between target and ligand, obtained from inhibition or displacement) in assay [4] is 81 nM.

`O=C1N(Cc2cccc(-n3cccn3)n2)CCCC12CCN(c1cnc3ccccc3n1)CC2` [Example 83, 2-((6-(1H-pyrazol-1-yl)pyridin-2-yl)methyl)-9-(quinoxalin-2-yl)-2,9-diazaspiro[5.5]undecan-1-one]: the Ki in assay [1] stood at 1730 nM; in assay [4] it was 80 nM. Also, the Kd in assay [2] came to 364 nM; in assay [3], 2760 nM.

Regarding `O=C1N(Cc2ncoc2-c2ccccc2)CCCC12CCN(c1cnc3ccccc3n1)CC2` [Example 95, 2-((5-phenyloxazol-4-yl)methyl)-9-(quinoxalin-2-yl)-2,9-diazaspiro[5.5]undecan-1-one], the Ki in assay [1] is 223 nM; in assay [4], 8 nM. Moreover, the Kd in assay [2] was found to be 36 nM; in assay [3] it was 429 nM.

On to `Cc1nc(-c2cccc(CN3CCCC4(CCN(c5cnc6ccccc6n5)CC4)C3=O)c2)no1` [Example 98, 2-(3-(5-methyl-1,2,4-oxadiazol-3-yl)benzyl)-9-(quinoxalin-2-yl)-2,9-diazaspiro[5.5]undecan-1-one], for which the Ki in assay [1] was found to be 425 nM; in assay [4], 50 nM. Moreover, the values for the Kd in assay [2] and in assay [3] were 223 nM and 980 nM, respectively.

Regarding `COc1cccc(-n2cncc2CN2CCCC3(CCN(c4cnc5ccccc5n4)CC3)C2=O)c1` [Example 111, 2-((1-(3-methoxyphenyl)-1H-imidazol-5-yl)methyl)-9-(quinoxalin-2-yl)-2,9-diazaspiro[5.5]undecan-1-one], the figures for the Ki in assay [1] and in assay [4] were 1290 nM and 85 nM, respectively. Besides, the Kd was 559 nM in assay [2] and 3820 nM in assay [3].

With `O=C1N(Cc2cccc3nsnc23)CCCC12CCN(c1cnc3ccccc3n1)CC2` [Example 113, 2-(benzo[c][1,2,5]thiadiazol-4-ylmethyl)-9-(quinoxalin-2-yl)-2,9-diazaspiro[5.5]undecan-1-one], the Ki in assay [1] is 1360 nM; in assay [4], 82 nM. Moreover, the Kd was found to be 630 nM in assay [2] and 3500 nM in assay [3].

`Cc1ccc(-n2nccn2)c(CN2CCCC3(CCN(c4cnc5ccccc5n4)CC3)C2=O)c1` [Example 125, 2-(5-methyl-2-(2H-1,2,3-triazol-2-yl)benzyl)-9-(quinoxalin-2-yl)-2,9-diazaspiro[5.5]undecan-1-one]: the Ki in assay [1] stood at 2290 nM; in assay [4], 137 nM. Also, the figures for the Kd in assay [2] and in assay [3] were 324 nM and 4990 nM, respectively.

With `Cc1ccc(-n2nccn2)cc1CN1CCCC2(CCN(c3cnc4ccccc4n3)CC2)C1=O` [Example 128, 2-(2-methyl-5-(2H-1,2,3-triazol-2-yl)benzyl)-9-(quinoxalin-2-yl)-2,9-diazaspiro[5.5]undecan-1-one], the values for the Ki in assay [1] and in assay [4] were 967 nM and 73 nM, respectively. Besides, the Kd in assay [2] is 160 nM; in assay [3], > 10000 nM.

`O=C1N(Cc2n[nH]c3ccccc23)CCCC12CCN(c1cnc3ccccc3n1)CC2` [Example 129, 2-((1H-indazol-3-yl)methyl)-9-(quinoxalin-2-yl)-2,9-diazaspiro[5.5]undecan-1-one]: the values for the Ki in assay [1] and in assay [4] were 126 nM and 9 nM, respectively. Moreover, the values for the Kd in assay [2] and in assay [3] were 25 nM and 105 nM, respectively.

As for `Cn1cc(CN2CCCC3(CCN(c4cnc5ccccc5n4)CC3)C2=O)c2ccccc21` [Example 130, 2-((1-methyl-1H-indol-3-yl)methyl)-9-(quinoxalin-2-yl)-2,9-diazaspiro[5.5]undecan-1-one], the values for the Ki in assay [1] and in assay [4] were 422 nM and 29 nM, respectively. Also, the Kd was found to be 134 nM in assay [2] and 1280 nM in assay [3].

For `Cc1ccc2oc(N3CCC4(CCCC(=O)N4Cc4cccc5[nH]ccc45)CC3)nc2c1` [Example 140, 1-((1H-indol-4-yl)methyl)-9-(5-methylbenzo[d]oxazol-2-yl)-1,9-diazaspiro[5.5]undecan-2-one], the figures for the Ki in assay [1] and in assay [4] were 662 nM and 81 nM, respectively. In addition, the results for the dissociation constant (Kd) in assay [2] and in assay [3] were 379 nM and 1580 nM, respectively.

Take `Cn1cc(CN2C(=O)CCCC23CCN(c2cnc4ccccc4n2)CC3)c2cccnc21` [Example 143, 1-((1-methyl-1H-pyrrolo[2,3-b]pyridin-3-yl)methyl)-9-(quinoxalin-2-yl)-1,9-diazaspiro[5.5]undecan-2-one]: the Ki in assay [1] was determined as 747 nM; in assay [4], 39 nM. Also, the Kd turned out to be 50 nM in assay [2] and 307 nM in assay [3].

Consider `Cc1cnc(-c2cccc(CN3CCCC4(CCN(c5cnc6ccccc6n5)CC4)C3=O)c2)o1` [Example 147, 2-(3-(5-methyloxazol-2-yl)benzyl)-9-(quinoxalin-2-yl)-2,9-diazaspiro[5.5]undecan-1-one], for which the Ki came to 94 nM in assay [1] and 7 nM in assay [4]. For the same compound, the Kd in assay [2] turned out to be 63 nM; in assay [3], 228 nM.

For `O=C1N(Cc2ccccc2-c2ncco2)CCCC12CCN(c1cnc3ccccc3n1)CC2` [Example 149, 2-(2-(oxazol-2-yl)benzyl)-9-(quinoxalin-2-yl)-2,9-diazaspiro[5.5]undecan-1-one], the values for the Ki in assay [1] and in assay [4] were 981 nM and 19 nM, respectively. The Kd came to 268 nM in assay [2] and 3450 nM in assay [3].

`O=C1N(Cc2ccccc2-c2ccco2)CCCC12CCN(c1cnc3ccccc3n1)CC2` [Example 150, 2-(2-(furan-2-yl)benzyl)-9-(quinoxalin-2-yl)-2,9-diazaspiro[5.5]undecan-1-one]: the Ki in assay [1] stood at 744 nM; in assay [4], 45 nM. For the same compound, the figures for the Kd in assay [2] and in assay [3] were 185 nM and 2100 nM, respectively.

Regarding `O=C1N(Cc2c[nH]c3ccccc23)CCCC12CCN(c1nc3ccccc3[nH]1)CC2` [Example 152, 2-((1H-indol-3-yl)methyl)-9-(1H-benzo[d]imidazol-2-yl)-2,9-diazaspiro[5.5]undecan-1-one], the Ki in assay [1] was determined as 1560 nM; in assay [4], 69 nM. In addition, the dissociation constant Kd was determined as 84 nM in assay [2] and 939 nM in assay [3].

With `O=C1N(Cc2c[nH]c3ccccc23)CCCC12CCN(c1nccc3occc13)CC2` [Example 156, 2-((1H-indol-3-yl)methyl)-9-(furo[3,2-c]pyridin-4-yl)-2,9-diazaspiro[5.5]undecan-1-one], the Ki in assay [1] came out at 623 nM; in assay [4], 23 nM. In addition, the Kd in assay [2] came out at 139 nM; in assay [3] it was 1020 nM.

`O=C1N(Cc2c[nH]c3ccccc23)CCCC12CCN(c1ccc3ccccc3n1)CC2` [Example 160, 2-((1H-indol-3-yl)methyl)-9-(quinolin-2-yl)-2,9-diazaspiro[5.5]undecan-1-one]: the Ki in assay [1] is 571 nM; in assay [4] it was 68 nM. The Kd was 111 nM in assay [2] and 806 nM in assay [3].

As for `Cc1cc(N2CCC3(CCCN(Cc4c[nH]c5ccccc45)C3=O)CC2)nc2ccccc12` [Example 164, 2-((1H-indol-3-yl)methyl)-9-(4-methylquinolin-2-yl)-2,9-diazaspiro[5.5]undecan-1-one], the Ki in assay [1] stood at 115 nM; in assay [4], 14 nM. In addition, the Kd in assay [2] turned out to be 12 nM; in assay [3], 90 nM.

Consider `O=C1N(Cc2c[nH]c3ccccc23)CCCC12CCN(c1cc3nccnc3cn1)CC2` [Example 167, 2-((1H-indol-3-yl)methyl)-9-(pyrido[4,3-b]pyrazin-7-yl)-2,9-diazaspiro[5.5]undecan-1-one], for which the Ki in assay [1] came out at 665 nM; in assay [4], 81 nM. Further, the Kd amounted to 152 nM in assay [2] and 1670 nM in assay [3].

`O=C1N(Cc2c[nH]c3ccccc23)CCCC12CCN(c1ncc3ccccc3n1)CC2` [Example 169, 2-((1H-indol-3-yl)methyl)-9-(quinazolin-2-yl)-2,9-diazaspiro[5.5]undecan-1-one]: the Ki in assay [1] amounted to 966 nM; in assay [4] it was 70 nM. The Kd in assay [2] came to 123 nM; in assay [3], 926 nM.
